This note sets out measurements from patent US10160755B2 (Plexxikon Inc., priority 2015, dated 2018).

The target of one experiment is T1, FLT3-ITD (Homo sapiens, UniProt P36888).
T1 construct: FLT3-ITD; Invitrogen #PV6190
T1 sequence (P36888 1-993): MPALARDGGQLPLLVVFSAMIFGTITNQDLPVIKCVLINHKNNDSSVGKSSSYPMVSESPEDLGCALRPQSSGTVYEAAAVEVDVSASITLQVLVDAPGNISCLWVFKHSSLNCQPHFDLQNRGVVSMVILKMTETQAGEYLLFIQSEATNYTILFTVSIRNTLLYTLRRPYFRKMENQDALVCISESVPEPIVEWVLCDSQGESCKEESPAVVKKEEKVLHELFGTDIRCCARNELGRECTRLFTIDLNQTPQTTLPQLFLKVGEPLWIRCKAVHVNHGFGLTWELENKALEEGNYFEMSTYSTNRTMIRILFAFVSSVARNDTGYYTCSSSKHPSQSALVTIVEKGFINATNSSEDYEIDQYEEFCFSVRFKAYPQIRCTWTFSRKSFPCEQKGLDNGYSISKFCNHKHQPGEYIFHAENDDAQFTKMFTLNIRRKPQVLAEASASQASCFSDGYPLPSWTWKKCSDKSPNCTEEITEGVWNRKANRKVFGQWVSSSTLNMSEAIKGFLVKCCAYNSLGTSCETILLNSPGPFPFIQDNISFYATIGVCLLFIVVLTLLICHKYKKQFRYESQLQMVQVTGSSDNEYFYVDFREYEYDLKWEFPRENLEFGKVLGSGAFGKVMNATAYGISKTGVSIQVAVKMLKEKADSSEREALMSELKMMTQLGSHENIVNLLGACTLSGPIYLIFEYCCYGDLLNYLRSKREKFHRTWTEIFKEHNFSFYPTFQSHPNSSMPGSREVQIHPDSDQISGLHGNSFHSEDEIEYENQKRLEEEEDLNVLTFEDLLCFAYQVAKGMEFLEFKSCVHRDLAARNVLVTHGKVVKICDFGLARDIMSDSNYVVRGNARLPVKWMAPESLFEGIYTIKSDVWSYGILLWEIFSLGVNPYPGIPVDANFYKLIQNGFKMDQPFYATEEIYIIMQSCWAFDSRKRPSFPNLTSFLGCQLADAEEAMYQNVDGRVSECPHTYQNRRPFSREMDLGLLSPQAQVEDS
Kind of experiment: FLT3-ITD biochemical kinase assay (AlphaScreen). The procedure, abridged:
(§1)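 Recombinant enzyme phosphorylated biotin-poly(Glu4-Tyr) peptide (30 nM final); ATP final 10 μM for FLT3-D835Y, 100 μM for FLT3-ITD. AlphaScreen read-out: streptavidin donor and anti-phosphotyrosine (PY20) acceptor beads, 20 and 60 min at room temperature; inhibition seen as drop in 580 nm proximity signal; IC50 determined.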

The target in a further experiment is T2, FLT3-D835Y (Homo sapiens, UniProt P36888, D835Y).
T2 construct: purchased Invitrogen PV3967
T2 sequence (P36888 27-993 D835Y): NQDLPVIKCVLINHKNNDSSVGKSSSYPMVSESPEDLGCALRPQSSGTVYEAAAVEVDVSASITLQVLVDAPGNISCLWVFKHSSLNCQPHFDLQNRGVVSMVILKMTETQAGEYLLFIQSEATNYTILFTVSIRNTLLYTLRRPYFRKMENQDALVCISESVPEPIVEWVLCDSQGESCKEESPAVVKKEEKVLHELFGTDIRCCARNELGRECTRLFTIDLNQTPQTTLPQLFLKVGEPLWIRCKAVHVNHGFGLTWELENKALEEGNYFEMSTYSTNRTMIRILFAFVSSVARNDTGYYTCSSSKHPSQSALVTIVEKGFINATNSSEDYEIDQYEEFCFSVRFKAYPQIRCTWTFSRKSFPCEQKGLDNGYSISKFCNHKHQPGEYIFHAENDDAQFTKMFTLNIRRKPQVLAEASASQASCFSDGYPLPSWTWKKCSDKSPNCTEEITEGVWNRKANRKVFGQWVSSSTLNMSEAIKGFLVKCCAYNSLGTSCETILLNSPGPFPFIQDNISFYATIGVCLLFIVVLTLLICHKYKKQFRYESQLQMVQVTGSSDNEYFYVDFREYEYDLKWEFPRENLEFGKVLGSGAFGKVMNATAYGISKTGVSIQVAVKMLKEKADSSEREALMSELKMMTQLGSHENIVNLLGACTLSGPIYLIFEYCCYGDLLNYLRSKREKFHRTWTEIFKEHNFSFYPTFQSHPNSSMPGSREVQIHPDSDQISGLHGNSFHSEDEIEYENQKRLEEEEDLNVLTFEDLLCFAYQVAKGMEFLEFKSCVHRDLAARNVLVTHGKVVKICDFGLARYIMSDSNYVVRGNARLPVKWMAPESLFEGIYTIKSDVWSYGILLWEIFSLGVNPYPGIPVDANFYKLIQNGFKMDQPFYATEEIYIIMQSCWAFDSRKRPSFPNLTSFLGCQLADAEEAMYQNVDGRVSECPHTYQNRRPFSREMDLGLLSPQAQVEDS
Kind of experiment: FLT3-D835Y biochemical kinase assay (AlphaScreen). An outline of the steps:
as §1

With `CC(C)(O)c1ncc(-c2cnc3[nH]cc(-c4ccc5ncn(C(C)(C)C)c5c4)c3n2)cn1` [P-380, 2-[5-[7-(3-tert-butylbenzimidazol-5-yl)-5H-pyrrolo[2,3-b]pyrazin-2-yl]pyrimidin-2-yl]propan-2-ol], the IC50 at FLT3-ITD and at FLT3-D835Y was 0.0001 to 1 µM in each case.
Consider `CC(C)(C)n1cnc2ccc(-c3c[nH]c4ncc(-c5ccc(N6CCOCC6)nc5)nc34)cc21` [P-326, 4-[5-[7-(3-tert-butylbenzimidazol-5-yl)-5H-pyrrolo[2,3-b]pyrazin-2-yl]-2-pyridyl]morpholine], for which the IC50 at FLT3-ITD and against FLT3-D835Y was 0.0001 to 1 µM throughout.
With `Cn1cnc2ccc(-c3c[nH]c4nnc(Cl)cc34)cc21` [P-313, 3-chloro-5-(3-methylbenzimidazol-5-yl)-7H-pyrrolo[2,3-c]pyridazine], the IC50 at FLT3-ITD and on FLT3-D835Y was 0.0001 to 1 µM each time.
On to `CC(C)(C)n1cnc2ccc(-c3c[nH]c4ncc(-c5ccc(C#N)nc5)cc34)cc21` [P-290, 5-[3-(3-tert-butylbenzimidazol-5-yl)-1H-pyrrolo[2,3-b]pyridin-5-yl]pyridine-2-carbonitrile], for which the IC50 on FLT3-ITD and against FLT3-D835Y was 0.0001 to 1 µM in each case.
With `c1cc(-c2cnc3[nH]cc(-c4ccc5ncn(C6CCCNC6)c5c4)c3n2)cc(N2CCCCC2)n1` (stereo not drawn) [P-339, 7-[3-(3-piperidyl)benzimidazol-5-yl]-2-[2-(1-piperidyl)-4-pyridyl]-5H-pyrrolo[2,3-b]pyrazine], the IC50 against FLT3-ITD and against FLT3-D835Y was 0.0001 to 1 µM throughout.
As to `O=S1(=O)CCCN1c1cc(-c2cnc3[nH]cc(-c4ccc5ncn(C6CCCNC6)c5c4)c3c2)ccn1` (stereo not drawn) [P-311, 2-[4-[3-[3-(3-piperidyl)benzimidazol-5-yl]-1H-pyrrolo[2,3-b]pyridin-5-yl]-2-pyridyl]-1,2-thiazolidine 1,1-dioxide], the IC50 against FLT3-ITD and at FLT3-D835Y was 0.0001 to 1 µM in each case.
As for `CCN1CCN(c2ccc(-c3cnc4[nH]cc(-c5ccc6ncn(C7CCCNC7)c6c5)c4n3)cn2)CC1` (stereo not drawn) [P-366, 2-[6-(4-ethylpiperazin-1-yl)-3-pyridyl]-7-[3-(3-piperidyl)benzimidazol-5-yl]-5H-pyrrolo[2,3-b]pyrazine], the IC50 on FLT3-ITD and against FLT3-D835Y was 0.0001 to 1 µM in each case.
With `CCN1CCN(c2ccc(-c3cnc4[nH]cc(-c5ccc6ncn(C(C)(C)C)c6c5)c4n3)cc2)CC1` [P-358, 7-(3-tert-butylbenzimidazol-5-yl)-2-[4-(4-ethylpiperazin-1-yl)phenyl]-5H-pyrrolo[2,3-b]pyrazine], the IC50 against FLT3-ITD and against FLT3-D835Y was 0.0001 to 1 µM in each case.
With `CC(C)(C)n1cnc2ccc(-c3c[nH]c4ncc(-c5cccc(N6CCOCC6)c5)cc34)cc21` [P-316, 4-[3-[3-(3-tert-butylbenzimidazol-5-yl)-1H-pyrrolo[2,3-b]pyridin-5-yl]phenyl]morpholine], the IC50 against FLT3-ITD and against FLT3-D835Y was 0.0001 to 1 µM in each case.
For `CC(C)(C)n1cnc2ccc(-c3n[nH]c4ncc(-c5ccnc(N6CCOCC6)c5)cc34)cc21` [P-297, 4-[4-[3-(3-tert-butylbenzimidazol-5-yl)-1H-pyrazolo[3,4-b]pyridin-5-yl]-2-pyridyl]morpholine], the IC50 against FLT3-ITD and on FLT3-D835Y was 0.0001 to 1 µM each time.
Consider `c1cc(N2CCOCC2)ncc1-c1cnc2[nH]cc(-c3ccc4ncn(C5CCCNC5)c4c3)c2n1` (stereo not drawn) [P-325, 4-[5-[7-[3-(3-piperidyl)benzimidazol-5-yl]-5H-pyrrolo[2,3-b]pyrazin-2-yl]-2-pyridyl]morpholine], for which the IC50 against FLT3-ITD and at FLT3-D835Y was 0.0001 to 1 µM in each case.
For `CN1CCN(c2ccc(-c3cnc4[nH]cc(-c5ccc6ncn(C(C)(C)C)c6c5)c4n3)cc2)CC1` [P-341, 7-(3-tert-butylbenzimidazol-5-yl)-2-[4-(4-methylpiperazin-1-yl)phenyl]-5H-pyrrolo[2,3-b]pyrazine], the IC50 against FLT3-ITD and on FLT3-D835Y was 0.0001 to 1 µM throughout.
`COc1cc(-c2cc3c(-c4ccc5ncn(C(C)(C)C)c5c4)c[nH]c3nn2)ccn1` [P-315, 5-(3-tert-butylbenzimidazol-5-yl)-3-(2-methoxy-4-pyridyl)-7H-pyrrolo[2,3-c]pyridazine]: the IC50 against FLT3-ITD and against FLT3-D835Y was 0.0001 to 1 µM each time.
For the compound `Cc1ccc(-c2cnc3[nH]cc(-c4ccc5ncn(C(C)(C)C)c5c4)c3n2)cn1` [P-388, 7-(3-tert-butylbenzimidazol-5-yl)-2-(6-methyl-3-pyridyl)-5H-pyrrolo[2,3-b]pyrazine], the half-maximal inhibitory concentration (IC50) against FLT3-ITD and on FLT3-D835Y was 0.0001 to 1 µM in each case.
Take `CC(C)(C)n1cnc2ccc(-c3c[nH]c4ncc(-c5ccc(N6CCOCC6)nc5)cc34)cc21` [P-322, 4-[5-[3-(3-tert-butylbenzimidazol-5-yl)-1H-pyrrolo[2,3-b]pyridin-5-yl]-2-pyridyl]morpholine]: the IC50 at FLT3-ITD and on FLT3-D835Y was 0.0001 to 1 µM each time.
For `O=S1(=O)CCCCN1c1cc(-c2cnc3[nH]cc(-c4ccc5ncn(C6CCCNC6)c5c4)c3n2)ccn1` (stereo not drawn) [P-310, 2-[4-[7-[3-(3-piperidyl)benzimidazol-5-yl]-5H-pyrrolo[2,3-b]pyrazin-2-yl]-2-pyridyl]thiazinane 1,1-dioxide], the IC50 on FLT3-ITD and at FLT3-D835Y was 0.0001 to 1 µM each time.
In the case of `CC(C)(C)n1cnc2ccc(-c3c[nH]c4ncc(-c5cnc(N6CCC(F)(F)CC6)nc5)nc34)cc21` [P-357, 7-(3-tert-butylbenzimidazol-5-yl)-2-[2-(4,4-difluoro-1-piperidyl)pyrimidin-5-yl]-5H-pyrrolo[2,3-b]pyrazine], the concentration for half-maximal inhibition (IC50) against FLT3-ITD and at FLT3-D835Y was 0.0001 to 1 µM each time.
Consider `CC(C)(C)n1cnc2ccc(-c3c[nH]c4ncc(-c5ccc(N6CCC(F)(F)CC6)nc5)nc34)cc21` [P-356, 7-(3-tert-butylbenzimidazol-5-yl)-2-[6-(4,4-difluoro-1-piperidyl)-3-pyridyl]-5H-pyrrolo[2,3-b]pyrazine], for which the IC50 against FLT3-ITD and at FLT3-D835Y was 0.0001 to 1 µM each time.
`CC(C)(C)n1cnc2ccc(-c3c[nH]c4ncc(-c5ccnc(N6CCCCC6)c5)nc34)cc21` [P-338, 7-(3-tert-butylbenzimidazol-5-yl)-2-[2-(1-piperidyl)-4-pyridyl]-5H-pyrrolo[2,3-b]pyrazine]: the IC50 on FLT3-ITD and on FLT3-D835Y was 0.0001 to 1 µM throughout.
Take `Cc1ncc(C#Cc2cnc3[nH]cc(-c4ccc5ncn(C(C)(C)C)c5c4)c3c2)cn1` [P-383, 1-tert-butyl-6-[5-[2-(2-methylpyrimidin-5-yl)ethynyl]-1H-pyrrolo[2,3-b]pyridin-3-yl]benzimidazole]: the IC50 on FLT3-ITD and at FLT3-D835Y was 0.0001 to 1 µM throughout.
With `CC(C)(C)n1cnc2ccc(-c3c[nH]c4ncc(-c5ccnc(N6CCCS6(=O)=O)c5)nc34)cc21` [P-294, 2-[4-[7-(3-tert-butylbenzimidazol-5-yl)-5H-pyrrolo[2,3-b]pyrazin-2-yl]-2-pyridyl]-1,2-thiazolidine 1,1-dioxide], the IC50 against FLT3-ITD and at FLT3-D835Y was 0.0001 to 1 µM in each case.
